Source: US8076487B2, “Pyridone derivative and herbicide” (Kumiai Chemical Industry Co., Ltd., priority 2006, dated 2011)

What was measured:
Type in all cases: in vivo
[1] = system: slender amaranth (Amaranthus viridis L.); test: Test Example 2: herbicidal effect by soil application to upland field; conditions: soil surface spray, upland field soil, 1,000 g active ingredient per hectare, 21st day after application
Summary of the method: (§1)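 Scoring on a standard scale took place 21 days after application, with plants kept in a greenhouse. Active ingredient (1,000 g/ha, as diluted wettable powder, 1,000 L/ha) was sprayed evenly onto soil directly after sowing and covering seeds.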

[2] = system: green foxtail (Setaria viridis (L.) P. Beauv.); test: as above; conditions: soil surface spray, upland field soil, 1,000 g active ingredient per hectare, 21st day after application
Summary of the method: as §1

[3] = system: barnyardgrass (Echinochloa crus-galli (L.) P. Beauv. var. crus-galli); test: as above; conditions: soil surface spray, upland field soil, 1,000 g active ingredient per hectare, 21st day after application
Summary of the method: as §1

[4] = system: velvetleaf (Abutilon theophrasti medicus); test: as above; conditions: soil surface spray, upland field soil, 1,000 g active ingredient per hectare, 21st day after application
Summary of the method: as §1

[5] = system: heartshape false pickerelweed (Monochoria vaginalis (Burm.f.) C.Presl); test: Test Example 1: herbicidal effect by soil application to paddy field; conditions: paddy field soil application; active ingredient 1,000 g per 1 hectare; wettable powder added dropwise to water surface the day after sowing; examined on the 21st day after application
Summary of the method: (§2)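 Plants were sown in flooded (3 cm) paddy soil and evaluated for herbicidal effect 21 days after soil application in a greenhouse.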

[6] = system: early watergrass (Echinochloa oryzicola Vasing); test: as above; conditions: paddy field soil application; active ingredient 1,000 g per 1 hectare; wettable powder added dropwise to water surface the day after sowing; examined on the 21st day after application
Summary of the method: as §2

[7] = system: Japanese bulrush (Scirpus juncoides Roxb.); test: as above; conditions: paddy field soil application; active ingredient 1,000 g per 1 hectare; wettable powder added dropwise to water surface the day after sowing; examined on the 21st day after application
Summary of the method: as §2

[8] = system: slender amaranth (Amaranthus viridis L.); test: Test Example 3: herbicidal effect by application to upland field (foliage treatment); conditions: foliage treatment, 1,000 g active ingredient per 1 hectare, 14th day after application, greenhouse
Summary of the method: (§3)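 Seeds went into pots of field soil and grew under glass for two weeks. The whole plant was then sprayed from above with diluted wettable powder delivering 1,000 g/ha of active ingredient. Plants stayed in the greenhouse, and injury was graded against a standard 14 days after spraying.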

[9] = system: green foxtail (Setaria viridis (L.) P. Beauv.); test: as above; conditions: foliage treatment, 1,000 g active ingredient per 1 hectare, 14th day after application, greenhouse
Summary of the method: as §3

[10] = system: barnyardgrass (Echinochloa crus-galli (L.) P. Beauv. var. crus-galli); test: as above; conditions: foliage treatment, 1,000 g active ingredient per 1 hectare, 14th day after application, greenhouse
Summary of the method: as §3

[11] = system: velvetleaf (Abutilon theophrasti medicus); test: as above; conditions: foliage treatment, 1,000 g active ingredient per 1 hectare, 14th day after application, greenhouse
Summary of the method: as §3

With `CCCS(=O)(=O)Oc1c(C(=O)c2ccc(C(F)(F)F)n(CCOCCOC)c2=O)cnn1CC` [IV-204] the “herbicidal effect (index), Slender Amaranth” value [1] was 5 (90% or more of herbicidal effect and crop phytotoxicity), the “herbicidal effect (index), Green Foxtail” value [2] was 5 (90% or more of herbicidal effect and crop phytotoxicity) and the “herbicidal effect (index), Barnyardgrass” value [3] was 5 (90% or more of herbicidal effect and crop phytotoxicity). The “herbicidal effect (index), Velvetleaf” value [4] was 5 (90% or more of herbicidal effect and crop phytotoxicity), the “herbicidal effect, Monochoria vaginalis (Burm. f.) C. Presl” value (shortened to “herbicidal effect, Monochoria vaginalis”) [5] was 5 (90% or more of herbicidal effect and crop phytotoxicity) and the “herbicidal effect, Echinochloa oryzicola Vasing” value [6] was 5 (90% or more of herbicidal effect and crop phytotoxicity). The “herbicidal effect, Scirpus juncoides Roxb.” value [7] was 5 (90% or more of herbicidal effect and crop phytotoxicity), the “herbicidal effect, Slender Amaranth” value [8] was 5 (90% or more of herbicidal effect and crop phytotoxicity) and the “herbicidal effect, Green Foxtail” value [9] was 5 (90% or more of herbicidal effect and crop phytotoxicity). The “herbicidal effect, Barnyardgrass” value [10] was 5 (90% or more of herbicidal effect and crop phytotoxicity) and the “herbicidal effect, Velvetleaf” value [11] was 5 (90% or more of herbicidal effect and crop phytotoxicity).

With `CCn1ncc(C(=O)c2ccc(C(F)(F)F)n(CC3CCCO3)c2=O)c1O` (centres unmarked) [IV-205] the “herbicidal effect (index), Slender Amaranth” value [1] was 5 (90% or more of herbicidal effect and crop phytotoxicity), the “herbicidal effect (index), Green Foxtail” value [2] was 5 (90% or more of herbicidal effect and crop phytotoxicity) and the “herbicidal effect (index), Barnyardgrass” value [3] was 5 (90% or more of herbicidal effect and crop phytotoxicity). The “herbicidal effect (index), Velvetleaf” value [4] was 5 (90% or more of herbicidal effect and crop phytotoxicity), the “herbicidal effect, Monochoria vaginalis” value [5] was 5 (90% or more of herbicidal effect and crop phytotoxicity) and the “herbicidal effect, Echinochloa oryzicola Vasing” value [6] was 5 (90% or more of herbicidal effect and crop phytotoxicity). The “herbicidal effect, Scirpus juncoides Roxb.” value [7] was 5 (90% or more of herbicidal effect and crop phytotoxicity), the “herbicidal effect, Slender Amaranth” value [8] was 5 (90% or more of herbicidal effect and crop phytotoxicity) and the “herbicidal effect, Green Foxtail” value [9] was 5 (90% or more of herbicidal effect and crop phytotoxicity). For the same compound, the “herbicidal effect, Barnyardgrass” value [10] was 5 (90% or more of herbicidal effect and crop phytotoxicity) and the “herbicidal effect, Velvetleaf” value [11] was 5 (90% or more of herbicidal effect and crop phytotoxicity).

With `CC(C)n1ncc(C(=O)c2ccc(C(F)(F)F)n(C)c2=O)c1O` [IV-219] the “herbicidal effect (index), Slender Amaranth” value [1] was 5 (90% or more of herbicidal effect and crop phytotoxicity), the “herbicidal effect (index), Green Foxtail” value [2] was 3 (50 to less than 70% of herbicidal effect and crop phytotoxicity) and the “herbicidal effect (index), Barnyardgrass” value [3] was 5 (90% or more of herbicidal effect and crop phytotoxicity). For the same compound, the “herbicidal effect (index), Velvetleaf” value [4] was 5 (90% or more of herbicidal effect and crop phytotoxicity), the “herbicidal effect, Monochoria vaginalis” value [5] was 5 (90% or more of herbicidal effect and crop phytotoxicity) and the “herbicidal effect, Echinochloa oryzicola Vasing” value [6] was 5 (90% or more of herbicidal effect and crop phytotoxicity). For the same compound, the “herbicidal effect, Scirpus juncoides Roxb.” value [7] was 5 (90% or more of herbicidal effect and crop phytotoxicity), the “herbicidal effect, Slender Amaranth” value [8] was 5 (90% or more of herbicidal effect and crop phytotoxicity) and the “herbicidal effect, Green Foxtail” value [9] was 3 (50 to less than 70% of herbicidal effect and crop phytotoxicity). The “herbicidal effect, Barnyardgrass” value [10] was 5 (90% or more of herbicidal effect and crop phytotoxicity) and the “herbicidal effect, Velvetleaf” value [11] was 5 (90% or more of herbicidal effect and crop phytotoxicity).

`Cn1ncc(C(=O)c2ccc(Cl)n(C)c2=O)c1O` [IV-243] was tested, and the “herbicidal effect (index), Slender Amaranth” value [1] was 5 (90% or more of herbicidal effect and crop phytotoxicity), the “herbicidal effect (index), Green Foxtail” value [2] was 3 (50 to less than 70% of herbicidal effect and crop phytotoxicity) and the “herbicidal effect (index), Barnyardgrass” value [3] was 5 (90% or more of herbicidal effect and crop phytotoxicity). The “herbicidal effect (index), Velvetleaf” value [4] was 5 (90% or more of herbicidal effect and crop phytotoxicity), the “herbicidal effect, Monochoria vaginalis” value [5] was 5 (90% or more of herbicidal effect and crop phytotoxicity) and the “herbicidal effect, Echinochloa oryzicola Vasing” value [6] was 5 (90% or more of herbicidal effect and crop phytotoxicity). For the same compound, the “herbicidal effect, Scirpus juncoides Roxb.” value [7] was 5 (90% or more of herbicidal effect and crop phytotoxicity), the “herbicidal effect, Slender Amaranth” value [8] was 5 (90% or more of herbicidal effect and crop phytotoxicity) and the “herbicidal effect, Green Foxtail” value [9] was 4 (70 to less than 90% of herbicidal effect and crop phytotoxicity). The “herbicidal effect, Barnyardgrass” value [10] was 5 (90% or more of herbicidal effect and crop phytotoxicity) and the “herbicidal effect, Velvetleaf” value [11] was 5 (90% or more of herbicidal effect and crop phytotoxicity).
